Laboratory results taken from paper PMC4670083 (Nature medicine, 2015).

Biological target: T1, HPRT1 (Homo sapiens, UniProt P00492)
T1 sequence (P00492 2-218): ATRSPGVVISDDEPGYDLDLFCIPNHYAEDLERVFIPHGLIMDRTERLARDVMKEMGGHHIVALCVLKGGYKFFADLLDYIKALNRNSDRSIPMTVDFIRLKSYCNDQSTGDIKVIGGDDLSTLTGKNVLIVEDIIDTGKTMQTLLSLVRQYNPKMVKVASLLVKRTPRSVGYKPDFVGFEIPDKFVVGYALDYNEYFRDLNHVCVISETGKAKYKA
Test: biochemical

IC50: 7.7 µM
Compound: O=c1[nH]cnc2nc[nH]c12 [HX, hypoxanthine]
